Data from ChEMBL document CHEMBL2074407, “Identification of thyroid hormone transporters” (Biochem Biophys Res Commun, 1999).
Structures can show the parent of a compound that is named as a salt.

Columns and labels:
[1] = biological target: T1, Hepatic sodium/bile acid cotransporter (Rattus norvegicus, UniProt P26435); assay: (§1) TP_TRANSPORTER: uptake in Xenopus laevis oocytes; format: functional, cell-based; settings: oocyte
T1 sequence (P26435 whole entry): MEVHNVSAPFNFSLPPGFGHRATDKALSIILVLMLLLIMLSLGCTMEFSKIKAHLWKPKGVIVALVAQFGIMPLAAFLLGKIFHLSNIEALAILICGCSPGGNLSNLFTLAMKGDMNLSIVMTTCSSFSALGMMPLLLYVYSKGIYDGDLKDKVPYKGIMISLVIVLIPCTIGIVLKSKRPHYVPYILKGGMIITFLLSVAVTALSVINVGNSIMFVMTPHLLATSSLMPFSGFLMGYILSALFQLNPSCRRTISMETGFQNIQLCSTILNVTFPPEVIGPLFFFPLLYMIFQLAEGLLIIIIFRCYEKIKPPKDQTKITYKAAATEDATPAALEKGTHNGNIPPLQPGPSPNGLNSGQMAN

[2] = biological target: T2, Solute carrier organic anion transporter family member 1A1 (Rattus norvegicus, UniProt P46720); assay: as §1; format: functional, cell-based; settings: oocyte
T2 sequence (P46720 whole entry): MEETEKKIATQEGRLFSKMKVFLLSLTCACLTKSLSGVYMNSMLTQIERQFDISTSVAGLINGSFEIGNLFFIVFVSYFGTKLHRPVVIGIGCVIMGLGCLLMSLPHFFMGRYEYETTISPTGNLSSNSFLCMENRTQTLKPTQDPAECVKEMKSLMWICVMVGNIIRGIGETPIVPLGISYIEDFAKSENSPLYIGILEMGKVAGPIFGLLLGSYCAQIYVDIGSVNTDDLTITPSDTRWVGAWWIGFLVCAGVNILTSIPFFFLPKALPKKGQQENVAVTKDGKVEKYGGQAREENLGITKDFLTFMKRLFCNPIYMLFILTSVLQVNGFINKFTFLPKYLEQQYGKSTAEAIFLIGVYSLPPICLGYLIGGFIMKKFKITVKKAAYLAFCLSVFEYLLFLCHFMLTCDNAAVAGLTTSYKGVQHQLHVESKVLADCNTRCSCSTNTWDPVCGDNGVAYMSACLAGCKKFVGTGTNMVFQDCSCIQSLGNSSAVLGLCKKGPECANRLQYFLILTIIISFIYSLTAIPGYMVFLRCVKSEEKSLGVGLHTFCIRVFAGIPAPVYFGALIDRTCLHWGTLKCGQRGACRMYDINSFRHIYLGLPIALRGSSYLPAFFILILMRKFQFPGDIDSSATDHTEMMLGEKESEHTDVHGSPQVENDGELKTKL

Row | SMILES | Activity [1] | Activity [2]
1 | NC(Cc1ccc(Oc2ccc(OS(=O)(=O)O)c(I)c2)c(I)c1)C(=O)O (stereo not drawn) [DIIODOTHYRONINE SULFATE] | substrate [+] | substrate [+]
2 | NC(Cc1ccc(Oc2ccc(O)c(I)c2)c(I)c1)C(=O)O (stereo not drawn) [DIIODOTHYRONINE] | substrate [+] | substrate [+]
3 | N[C@@H](Cc1cc(I)c(Oc2cc(I)c(O)c(I)c2)c(I)c1)C(=O)O [LEVOTHYROXINE] | substrate [+] | substrate [+]
4 | N[C@@H](Cc1cc(I)c(Oc2ccc(O)c(I)c2)c(I)c1)C(=O)O [LIOTHYRONINE] | substrate [+] | substrate [+]
5 | N[C@@H](Cc1ccc(Oc2cc(I)c(O)c(I)c2)c(I)c1)C(=O)O.O=S(=O)(O)O [REVERSE TRIIODOTHYRONINE(RT3) SULFATE] | substrate [+] | substrate [+]
6 | N[C@@H](Cc1ccc(Oc2cc(I)c(O)c(I)c2)c(I)c1)C(=O)O [REVERSE TRIIODOTHYRONINE] | substrate [+] | substrate [+]
7 | NS(=O)(=O)O.N[C@@H](Cc1cc(I)c(Oc2cc(I)c(O)c(I)c2)c(I)c1)C(=O)O [THYROXINE SULFAMATE] | – | substrate [+]
8 | NC(Cc1cc(I)c(Oc2cc(I)c(OS(=O)(=O)O)c(I)c2)c(I)c1)C(=O)O (stereo not drawn) [THYROXINE SULFATE] | substrate [+] | substrate [+]
9 | NS(=O)(=O)O.N[C@@H](Cc1cc(I)c(Oc2ccc(O)c(I)c2)c(I)c1)C(=O)O [TRIIODOTHYRONINE SULFAMATE] | – | substrate [+]
10 | N[C@@H](Cc1cc(I)c(Oc2ccc(OS(=O)(=O)O)c(I)c2)c(I)c1)C(=O)O [TRIIODOTHYRONINE SULFATE] | substrate [+] | substrate [+]
